Five compounds from ChEMBL document CHEMBL6083197, “Design, synthesis, inhibitory activity, and molecular simulations study for d-glucose-conjugated thioureas containing pyrimidine ring as multitarget inhibitors against α-amylase, α-glucosidase, DDP-4, and PTP1B in Type 2 diabetes mellitus” (RSC Med Chem, 2024) can be followed below.

Test [1] in a line: Inhibition of alpha-amylase (unknown origin) using starch as substrate preincubated for 10 mins followed by substrate addition and measured after 10 mins by DNSA reagent based spectrophotometric assay. On the set-up: species or system Homo sapiens.
The nature of test [2]: Inhibition of alpha-glucosidase (unknown origin) using p-nitrophenyl-glucopyranoside as substrate incubated for 10 mins. The arrangement: species or system Homo sapiens.
A short description of test [3]: Inhibition of alpha-amylase (unknown origin) using starch as substrate incubated for 10 mins by DNS reagent based spectrometric assay. The arrangement: species or system Homo sapiens.
Test [4] addresses T1, Dipeptidyl peptidase 4 (Homo sapiens, UniProt P27487). Nature of the test: Inhibition of DPP-4 (unknown origin).
The target of test [5] is T1, Dipeptidyl peptidase 4. The test is described as follows: Inhibition of recombinant human DPP-4 using Gly-Pro-AMC as substrate by fluorometric assay.
The nature of test [6]: Inhibition of alpha-glucosidase (unknown origin) using p-nitrophenyl-alpha-D-glucoside as substrate preincubated for 5 mins followed by substrate addition and measured after 20 mins by microplate reader assay.
Test [7] is described as follows: Inhibition of alpha-amylase (unknown origin) using starch as substrate preincubated for 10 mins followed by substrate addition and measured after 10 mins by 3, 5-dinitrosalicylic acid reagent based microplate reader assay.

pIC50: −log10 of the molar value. Values after ≈ are worked out from the molar mass of the structure shown.

T1 sequence (P27487 whole entry): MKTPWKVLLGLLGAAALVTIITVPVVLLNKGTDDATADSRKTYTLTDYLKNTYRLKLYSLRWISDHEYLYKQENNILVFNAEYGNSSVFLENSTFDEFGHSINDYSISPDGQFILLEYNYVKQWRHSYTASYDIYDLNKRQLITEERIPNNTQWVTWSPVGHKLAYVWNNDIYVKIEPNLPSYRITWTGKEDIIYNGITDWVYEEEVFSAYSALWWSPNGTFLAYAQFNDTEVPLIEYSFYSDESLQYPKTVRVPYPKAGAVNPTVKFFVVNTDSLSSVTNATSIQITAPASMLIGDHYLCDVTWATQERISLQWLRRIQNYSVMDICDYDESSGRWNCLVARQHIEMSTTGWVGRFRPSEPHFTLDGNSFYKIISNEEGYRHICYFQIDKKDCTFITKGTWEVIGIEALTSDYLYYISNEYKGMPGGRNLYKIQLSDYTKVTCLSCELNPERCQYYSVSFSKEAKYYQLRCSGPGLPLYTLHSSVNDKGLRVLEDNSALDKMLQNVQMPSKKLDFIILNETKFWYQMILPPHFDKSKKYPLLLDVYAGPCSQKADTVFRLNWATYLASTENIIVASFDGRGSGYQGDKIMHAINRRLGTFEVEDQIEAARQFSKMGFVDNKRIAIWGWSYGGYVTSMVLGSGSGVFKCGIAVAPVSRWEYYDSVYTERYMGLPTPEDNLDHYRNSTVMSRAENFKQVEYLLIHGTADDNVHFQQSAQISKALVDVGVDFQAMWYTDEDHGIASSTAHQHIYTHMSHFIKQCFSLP

The term IC50 denotes the concentration needed to halve the response being measured. `CCOC(=O)C1=C(C)NC(=O)NC1c1ccc(Nc2cccc3c2C(=O)c2ccccc2C3=O)cc1` (configuration not stated): in test [1], the IC50 amounted to 24.23 µg/mL (≈ 50.3 µM).

In the case of `CN(C)/C(N)=N/c1nc(-c2ccccc2)cc(-c2c[nH]c3ccccc23)n1`, the 50% inhibitory concentration (IC50) in test [2] is 55.98 µg/mL (≈ 157 µM); in test [3] it was 49.5 µg/mL (≈ 139 µM). One may read the pIC50 as the negative decadic logarithm of the IC50, by convention in mol/L. `Nc1nc(NC2=NC(c3ccccc3)=CC(c3cccc([N+](=O)[O-])c3)N2)nc(N2CCOCC2)n1` (configuration not stated) showed a pIC50 in test [4] of 8.54. As to `O=C(SC1=NC(c2ccc(Cl)cc2)=CC(c2ccc([N+](=O)[O-])cc2)N1)c1ccccc1CN1C(=O)c2ccccc2C1=O` (configuration not stated), in test [5], the pIC50 is 9.29. On to `C[C@H]1O[C@H](O[C@H]2[C@H](O)[C@@H](O)[C@@H](O[C@H]3[C@H](O)[C@@H](O)C(O)O[C@@H]3CO)O[C@@H]2CO)[C@H](O)[C@@H](O)[C@@H]1N[C@H]1C=C(CO)[C@@H](O)[C@H](O)[C@H]1O` (some centres not stated) [ACARBOSE], for which the values for the negative logarithm of the IC50 (pIC50) in test [6] and in test [7] were 5.14 and 5.03, respectively.
